Experimental data reported in US20260055117A1, “SUBSTITUTED PYRIDONE GPR84 ANTAGONISTS AND USES THEREOF” (Liminal BioSciences Limited, priority 2022, published 2026).

Target: T1, human GPR84 receptor (Homo sapiens, UniProt Q9NQS5)
T1 construct: host or cells: HEK293, transiently transfected
Experiment: Gαi biosensor BRET assay (GPR84 antagonism vs agonist ZQ-16)
Assay type: cell-based
Details: HEK293 cells, 200 nmol/L agonist ZQ-16; for inhibition at 10 µM: tested at 10 μM (concentration code D); for IC50: Gαi biosensor BRET assay; for inhibition at 2 µM: tested at 2 μM (concentration code A)
Text: Background—The following assays can be used for determination of GPR84 activation in living HEK293 cells. The Gai BRET biosensor (Gagnon et al., 2018; Gales et al., 2006. Nat Struct Mol Biol. 13, 778-86; Saulieres et al., 2012. Nat Chem Biol. 8, 622-30) allows to directly monitor GPR84-mediated activation of Gai. The Gai biosensor consists of a Rluc8-tagged Gai2 subunit, a GFP10-tagged Gy2 subunit, and an untagged GB1. Agonist stimulation and GPR84 activation triggers a physical separation between the RLuc8-Gai donor and the GFP10-Gy2 acceptor, resulting in a decrease in BRET signal whose amplitude is correlated to ligand efficacy (Gales et al., 2006). Moreover, signaling functions of GPCRs are tightly regulated by endocytosis, the targeting of receptors to endosomes and their sorting to lysosomes or recycling to the plasma membrane. The early endosomes (EEs) trafficking assay (Namkung et al., 2016. Nat Commun. 7, 12178) uses Rluc8-tagged GPR84 and Renilla GFP (rGFP) attached to the FYVE domain from human endofin/zinc finger FYVE domain-containing protein 16, which binds phosphatidylinositol 3-phosphate in EEs. Agonist stimulation of GPR84-Rluc8 leads to trafficking of the receptor to EEs, and ensuing increase of the donor concentration relative to the rGFP-FYVE acceptor anchored in the same cellular compartment, and thus results in an increase in BRET signal.
Plasmids—The cDNA clones for human GPR84 receptor, human Gai2, GB1, and Gy2 were obtained from the cDNA Resource Center (www.cdna.org). GFP10 (F64L, S147P, S202F and H231L variant of Aequorea victoria Green Fluorescent Protein) gBlocks gene fragments (Integrated DNA Technologies, IA) and linker were inserted in frame at the N-terminus of human Gy2. Rluc8 (A55T, C124A, S130A, K136R, A143M, M185V, M253L, and S287L variant of the Renilla reniformis luciferase) gBlocks gene fragment was inserted with linkers in frame in between residues 91 and 92 of Gai2 or at the C-terminus of GPR84. The FYVE domain from human endofin (residues Q739 to K806) attached in frame at the C terminus of a humanized Renilla GFP (rGFP), were synthesized as gBlocks gene fragments.
Bioluminescence Resonance Energy Transfer (BRET) Measurement-HEK293 cells were transfected with GPR84-Rluc8 and rGFP-FYVE for the EEs trafficking biosensor or with GPR84, Gai2-Rluc8, GFP10-Gy2, and GB1 for the Ga; biosensor. The following day, transiently transfected cells were seeded in 96-well white clear bottom microplates coated with poly-D-lysine and left in culture for 24 hours. Cells were washed once with Tyrode's buffer (140 mmol/L NaCl, 1 mmol/L CaCl2), 2.7 mmol/L KCl, 0.49 mmol/L MgCl2, 0.37 mmol/L NaH2PO4, 5.6 mmol/L glucose, 12 mmol/L NaHCO3, and 25 mmol/L HEPES, pH 7.5) before performing assays in Tyrode's buffer. Test compounds were incubated with cells for 5 (Gai) or 15 (EEs) minutes at 37° C. before addition of 200 nmol/L of the GPR84 agonist ZQ-16 (2-(Hexylthio)-6-hydroxy-4 (3H)-pyrimidinone) for 5 minutes at room temperature (Gai) or 30 minutes at 37° C. (EEs). The Rluc8 substrate coelenterazine 400A (Prolume, Lakeside, A Z) was added at a final concentration of 5 μmol/L and BRET readings were collected using an Infinite M1000 microplate reader (Tecan, Morrisville, N C). BRET2 readings between Rluc8 and GFP10 or rGFP were collected by sequential integration of the signals detected in the 370 to 450 nm (Rluc8) and 510 to 540 nm (GFP10, rGFP) windows. The BRET signal was calculated as the ratio of light emitted by acceptor (GFP10, rGFP) over the light emitted by donor (Rluc8). The values were corrected to net BRET by subtracting the background BRET signal obtained in cells transfected with Rluc8 constructs alone. Ligand-promoted net BRET values were calculated by subtracting vehicle-induced net BRET from ligand-induced net BRET.

T1 sequence (Q9NQS5 whole entry): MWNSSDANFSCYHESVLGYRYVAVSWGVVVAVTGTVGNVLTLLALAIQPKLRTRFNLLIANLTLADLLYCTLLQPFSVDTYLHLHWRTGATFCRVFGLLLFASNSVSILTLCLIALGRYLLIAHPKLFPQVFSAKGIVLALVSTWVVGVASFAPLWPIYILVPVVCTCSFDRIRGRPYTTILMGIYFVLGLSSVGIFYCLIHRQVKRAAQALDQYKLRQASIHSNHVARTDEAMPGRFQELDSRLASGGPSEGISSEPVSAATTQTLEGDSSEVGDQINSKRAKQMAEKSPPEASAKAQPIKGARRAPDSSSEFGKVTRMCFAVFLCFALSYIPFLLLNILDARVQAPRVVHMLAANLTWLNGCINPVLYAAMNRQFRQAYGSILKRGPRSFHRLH

SMILES	inhibition at 10 µM	IC50	inhibition at 2 µM
Cc1cc(OCS(=O)(=O)N(C)C)cc(=O)n1[C@H](C)c1ccc(C#CC2CC2)cc1 [Compound I-41]	50 to 75%		
Cc1cc(OCC(=O)N(C)C2CC2)cc(=O)n1[C@H](C)c1ccc(C#CC2CC2)cc1 [Compound I-42]	> 75%	≤ 300 nM	
Cc1cc(OCC(=O)NC2CCN(C)CC2)cc(=O)n1[C@H](C)c1ccc(C#CC2CC2)cc1 [Compound I-43]	50 to 75%		
Cc1cc(OCC(=O)N(C)C2CCN(C)CC2)cc(=O)n1[C@H](C)c1ccc(C#CC2CC2)cc1 [Compound I-44]			> 75%
CNS(=O)(=O)COc1cc(C)n([C@H](C)c2ccc(C#CC3CC3)c(F)c2)c(=O)c1 [Compound I-45]	50 to 75%	300 to 1000 nM	
Cc1cc(OCS(N)(=O)=O)cc(=O)n1[C@H](C)c1ccc(C#CC2CC2)c(F)c1 [Compound I-46]	> 75%		
CNS(=O)(=O)COc1cc(C)n([C@H](C)c2ccc(C#CC3CC3)cc2)c(=O)c1 [Compound I-47]	50 to 75%		
Cc1cc(OCS(N)(=O)=O)cc(=O)n1[C@H](C)c1ccc(C#CC2CC2)cc1 [Compound I-48]	> 75%		
Cc1cc(OCC(=O)NCC(C)C)cc(=O)n1[C@H](C)c1ccc(C#CC2CC2)cc1 [Compound I-49]	> 75%		
Cc1cc(OCC(=O)NC2CC2)cc(=O)n1[C@H](C)c1ccc(C#CC2CC2)cc1 [Compound I-50]	> 75%	300 to 1000 nM	
Cc1cc(OCC(=O)NC2CC(F)(F)C2)cc(=O)n1[C@H](C)c1ccc(C#CC2CC2)cc1 [Compound I-51]	50 to 75%		
Cc1cc(OCC(=O)NC2COC2)cc(=O)n1[C@H](C)c1ccc(C#CC2CC2)cc1 [Compound I-52]	50 to 75%		
Cc1cc(OCc2ncccn2)cc(=O)n1[C@H](C)c1ccc(C#CC2(C(F)(F)F)CC2)c(F)c1 [Compound I-53]	50 to 75%		
Cc1cc(OCC(=O)NC(C)C)cc(=O)n1[C@H](C)c1ccc(C#CC2CC2)cc1 [Compound I-54]	> 75%		
Cc1cc(OCC(=O)N(C)C(C)C)cc(=O)n1[C@H](C)c1ccc(C#CC2CC2)cc1 [Compound I-55]	> 75%	≤ 300 nM	
Cc1cc(OCC(=O)N(C)C)cc(=O)n1[C@H](C)c1ccc(C#CC2(C(F)(F)F)CC2)cc1 [Compound I-56]	> 75%	≤ 300 nM	

SMILES	inhibition at 10 µM	IC50	inhibition at 2 µM
Cc1cc(OCC(=O)N(C)C2CCOCC2)cc(=O)n1[C@H](C)c1ccc(C#CC2CC2)cc1 [Compound I-57]		≤ 300 nM	> 75%
Cc1cc(OCC(=O)NC2CN(C)C2)cc(=O)n1[C@H](C)c1ccc(C#CC2CC2)cc1 [Compound I-58]	50 to 75%		
Cc1cc(OCC(=O)N(C)C2CN(C)C2)cc(=O)n1[C@H](C)c1ccc(C#CC2CC2)cc1 [Compound I-59]	> 75%		
Cc1cc(OCC(=O)N2CCN(C)CC2)cc(=O)n1[C@H](C)c1ccc(C#CC2CC2)cc1 [Compound I-60]	> 75%	≤ 300 nM	
Cc1cc(OCC(=O)N2CCNCC2)cc(=O)n1[C@H](C)c1ccc(C#CC2CC2)cc1 [Compound I-61]	> 75%		
Cc1cc(OCc2ncccn2)cc(=O)n1[C@H](C)c1ccc(C#CC2CC2(F)F)cc1 (stereo partly drawn) [Compound I-62]	50 to 75%		
Cc1cc(OCC(=O)N(C)C)cc(=O)n1[C@H](C)c1ccc(C#CC2CC2(F)F)cc1 (stereo partly drawn) [Compound I-63]	> 75%	≤ 300 nM	
Cc1cc(OCC(=O)N(C)C)cc(=O)n1[C@H](C)c1ccc(C#CC2CC2(F)F)c(F)c1 (stereo partly drawn) [Compound I-64, 2-((1-((1R)-1-(4-((2,2-difluorocyclopropyl)ethynyl)-3-fluorophenyl)ethyl)-6-methyl-2-oxo-1,2-dihydropyridin-4-yl)oxy)-N,N-dimethylacetamide]	> 75%	≤ 300 nM	
Cc1cc(OCC(=O)N(C)CC(C)C)cc(=O)n1[C@H](C)c1ccc(C#CC2CC2)cc1 [Compound I-65]	> 75%	≤ 300 nM	
Cc1cc(OCC(=O)NC2CCOCC2)cc(=O)n1[C@H](C)c1ccc(C#CC2CC2)cc1 [Compound I-66]	50 to 75%	300 to 1000 nM	
Cc1cc(OCC(=O)N(C)C2CC(F)(F)C2)cc(=O)n1[C@H](C)c1ccc(C#CC2CC2)cc1 [Compound I-67]	> 75%	300 to 1000 nM	
Cc1nc(OCC(=O)N(C)C2COC2)cc(=O)n1[C@H](C)c1ccc(C#CC2CC2)cc1 [Compound I-68]	> 75%	≤ 300 nM	
Cc1cc(OCC(=O)NC2CNC2)cc(=O)n1[C@H](C)c1ccc(C#CC2CC2)cc1 [Compound I-69]	25 to 50%		
Cc1cc(OCc2ncccc2C(F)(F)F)cc(=O)n1[C@H](C)c1ccc(C#CC2CC2)cc1 [Compound I-71]	> 75%	300 to 1000 nM	
Cc1cc(OCC(=O)N(C)C)cc(=O)n1[C@H](C)c1ccc(C#CC2CC2)c(O)c1 [Compound I-72]	> 75%	300 to 1000 nM	

Continued, values first:

inhibition at 10 µM	IC50	inhibition at 2 µM	SMILES
	≤ 300 nM	> 75%	[2H]C1(C#Cc2ccc([C@@H](C)n3c(C)cc(OCC(=O)N(C)C)cc3=O)cc2)CC1 [Compound I-73]
25 to 50%			CC#CC#Cc1ccc([C@@H](C)n2c(C)cc(OCc3ncccn3)cc2=O)cc1 [Compound I-74]
< 25%			Cc1cc(OCc2ncccn2)cc(=O)n1[C@H](C)c1ccc(C#CC#CC2CC2)cc1 [Compound I-75]
	≤ 300 nM	> 75%	Cc1cc(OCc2ncc(NS(=O)(=O)C(F)(F)F)cn2)cc(=O)n1[C@H](C)c1ccc(C#CC2CC2)cc1 [Compound I-76]
50 to 75%			Cc1cc(OCc2ncccn2)cc(=O)n1[C@H](C)c1ccc(C#CC2(C)CC2)cc1 [Compound I-77]
> 75%			Cc1cc(OCC(=O)N(C)C2CNC2)cc(=O)n1[C@H](C)c1ccc(C#CC2CC2)cc1 [Compound I-78]
> 75%			Cc1cc(OCC(=O)N2CC3(CCN(C)CC3)C2)cc(=O)n1[C@H](C)c1ccc(C#CC2CC2)cc1 [Compound I-79]
> 75%	≤ 300 nM		Cc1cc(OCC(=O)N(C)C)cc(=O)n1[C@H](C)c1ccc(C#CC2(C)CC2)cc1 [Compound I-80]
> 75%	≤ 300 nM		Cc1cc(OCc2cnc(NS(C)(=O)=O)nc2)cc(=O)n1[C@H](C)c1ccc(C#CC2CC2)cc1 [Compound I-81]
	≤ 300 nM	> 75%	Cc1cc(OCc2cnc(NS(=O)(=O)C(F)(F)F)nc2)cc(=O)n1[C@H](C)c1ccc(C#CC2CC2)cc1 [Compound I-82]
50 to 75%			Cc1cc(OCC(N(C)C)C(F)(F)F)cc(=O)n1[C@H](C)c1ccc(C#CC2CC2)c(F)c1 (stereo partly drawn) [Compound I-85]
50 to 75%			Cc1cc(OCC(N(C)C)C(F)(F)F)cc(=O)n1[C@H](C)c1ccc(C#CC2CC2)cc1 (stereo partly drawn) [Compound I-86]
50 to 75%			Cc1cc(OCC(=O)N(C)C)cc(=O)n1[C@H](C)c1ccc(C#CC2CC2)cc1Br [Compound I-87]
> 75%	300 to 1000 nM		Cc1cc(OCC(=O)N2CCCC2)cc(=O)n1[C@H](C)c1ccc(C#CC2(C)CC2)cc1 [Compound I-88]
